Seven compounds from PMC8272913 (ACS chemical neuroscience, 2019) can be followed below.

One assay deals with rat SERT (rSERT) (Rattus norvegicus, UniProt P31652). The experiment in a line: Inhibition of [3H]citalopram binding to rSERT from rat brain tissue. The note with it: for Ki: read-out: Ki, binding affinity for rSERT; for fold decrease in rSERT binding affinity relative to paroxetine: vs paroxetine.
Assay [1] concerns the target T1, hSERT-A169D (Homo sapiens, UniProt P31645, A169D). It is filed as binding.
Assay [2] addresses T2, hSERT WT (Homo sapiens, UniProt P31645). It is filed as cell-based. The note with it: read-out: Ki (nM) 5-HT Transport WT.
The target of assay [3] is T2, hSERT WT. The note with it: read-out: Ki (nM) RTI-55 Binding WT.
Assay [4] concerns the target T1, hSERT-A169D. It is filed as cell-based.
In another assay the target is hSERT (Homo sapiens, UniProt P31645). In kind it is binding.

Like-named read-outs stand apart in the source and are kept apart here.

rat SERT (rSERT), sequence (P31652 whole entry): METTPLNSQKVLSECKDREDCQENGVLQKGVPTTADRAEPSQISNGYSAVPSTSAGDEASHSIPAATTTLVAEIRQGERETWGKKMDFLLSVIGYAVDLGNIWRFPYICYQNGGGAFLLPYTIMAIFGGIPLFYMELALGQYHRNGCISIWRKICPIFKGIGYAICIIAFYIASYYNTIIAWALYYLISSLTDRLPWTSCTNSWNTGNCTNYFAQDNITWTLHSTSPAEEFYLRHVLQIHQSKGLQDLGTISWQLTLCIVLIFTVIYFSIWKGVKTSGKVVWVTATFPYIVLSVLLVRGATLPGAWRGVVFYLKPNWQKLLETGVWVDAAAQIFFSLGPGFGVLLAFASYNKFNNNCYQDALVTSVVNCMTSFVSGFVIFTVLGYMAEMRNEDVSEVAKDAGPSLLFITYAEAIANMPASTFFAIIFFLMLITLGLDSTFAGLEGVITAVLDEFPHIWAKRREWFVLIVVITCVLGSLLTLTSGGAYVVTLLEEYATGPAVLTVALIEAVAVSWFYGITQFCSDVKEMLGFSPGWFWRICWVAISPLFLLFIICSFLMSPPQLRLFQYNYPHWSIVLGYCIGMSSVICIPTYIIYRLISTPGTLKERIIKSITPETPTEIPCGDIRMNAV

Turning to `O=C(Cc1ccc(Br)cc1)N1CCC(c2ccc(F)cc2)C(COc2ccc3c(c2)OCO3)C1` (centres unmarked) [compound 6], the Ki at rat SERT (rSERT) was found to be 3820 nM.

In the case of `CCCN1CCC(c2ccc(F)cc2)C(COc2ccc3c(c2)OCO3)C1` (centres unmarked) [compound 2], the Ki on rat SERT (rSERT) was determined as 98 nM.

Take `c1ccc([C@@H]2CCNC[C@H]2COc2ccc3c(c2)OCO3)cc1` [compound 15, desfluoroparoxetine]: the Ki at rat SERT (rSERT) was determined as 0.557 nM.

As to `CCCCCCN1CCC(c2ccc(F)cc2)C(COc2ccc3c(c2)OCO3)C1` (centres unmarked) [compound 1], the Ki on rat SERT (rSERT) was determined as 395 nM.

As for `Brc1ccc([C@@H]2CCNC[C@H]2COc2ccc3c(c2)OCO3)cc1` [compound 13, 4-bromoparoxetine], the Ki at rat SERT (rSERT) is 4.9 nM; at hSERT-A169D [1] (read-out: Ki (nM) RTI-55 Binding A169D, hSERT A169D), 1.72 ± 0.39 nM; at hSERT WT [2], 2.3 ± 0.27 nM; at hSERT WT [3], 1.07 ± 0.3 nM; on hSERT-A169D [4] (read-out: Ki (nM) 5-HT Transport A169D, hSERT A169D), 6.37 ± 0.74 nM; on hSERT (read-out: Ki, binding affinity), 0.32 ± 0.028 nM. In addition, on rat SERT (rSERT), the “fold decrease in rSERT binding affinity relative to paroxetine” value amounted to 16 fold. The “RTI-55 Binding Sensitivity toward the A169D mutation” value on hSERT-A169D [1] (A169D versus WT) is on record as 1.6. In addition, the “5-HT Transport Sensitivity toward the A169D mutation” value at hSERT-A169D [4] (A169D versus WT) was 2.8. Further, the “fold reduction in binding affinity as compared to paroxetine” value on hSERT is ~ 4 fold.

`Fc1ccc(C2CCN(Cc3ccc(Br)cc3)CC2COc2ccc3c(c2)OCO3)cc1` (centres unmarked) [compound 3]: the Ki at rat SERT (rSERT) came out at 204 nM.

For `CN1CC[C@@H](c2ccc(F)cc2)[C@H](COc2ccc3c(c2)OCO3)C1` [compound 14], on rat SERT (rSERT), the Ki stood at 2.95 nM and the “fold decrease in rSERT binding affinity relative to paroxetine” value is recorded as 9.5 fold.

What is called Ki is a dissociation constant, usually derived from enzyme kinetics or from competition with a known ligand.
